Measured values published in publication PMC5513091, “A novel Alzheimer’s disease drug candidate targeting inflammation and fatty acid metabolism” (Alzheimer's Research & Therapy, 2017).

Tested on: cortex metabolites
Assay: Metabolomic analysis of cortex
Type: in vivo, mice
Experimental: Metabolomic analyses were conducted at Metabolon (Durham, NC, USA) as described previously. For statistical analyses and data display, any missing values were assumed to be below the limits of detection and imputed with the compound minimum (minimum value imputation). An estimate of the FDR (Q value) was calculated to take into account the multiple comparisons that normally occur in metabolomics-based studies, with Q < 0.05 used as an indication of high confidence in a result. The MetaboAnalyst tool was used to generate heat maps.

Structure (SMILES): Cc1ccc(N(/N=C/c2cccc(OC(F)(F)F)c2)C(=O)C(F)(F)F)c(C)c1 [CAD-31]
- monoacylglycerols in brain (AD mice, only significant drug effect): an increase in monoacylglycerols
- Long-chain fatty acids and monoacylglycerols in brain (WT mice): decreased
- acetyl-CoA, ketone bodies, and acyl carnitines in brain (WT mice): increased
- ergothioneine Fold Change (cortex, AD+31/AD, p-value 8.4373e-5): 0.57
- N-acetylalanine Fold Change (cortex, AD+31/AD, p-value 0.0006): 0.84
- glycerate Fold Change (cortex, AD+31/AD, p-value 0.0086): 0.65
- 2-oleoylglycerol (18:1) Fold Change (cortex, AD+31/AD, p-value 0.0105): 1.51
- 1-palmitoylglycerol (16:0) Fold Change (cortex, AD+31/AD, p-value 0.0153): 1.41
- 2-methylcitrate/homocitrate Fold Change (cortex, AD+31/AD, p-value 0.0221): 1.13
- hypoxanthine Fold Change (cortex, AD+31/AD, p-value 0.0231): 0.89
- N-acetylneuraminate Fold Change (cortex, AD+31/AD, p-value 0.0277): 0.85
- 2-palmitoylglycerol (16:0) Fold Change (cortex, AD+31/AD, p-value 0.031): 1.57
- 1-palmitoyl-GPG (16:0)* Fold Change (cortex, AD+31/AD, p-value 0.0317): 1.85
- azelate (nonanedioate) Fold Change (cortex, AD+31/AD, p-value 0.0374): 0.73
- ribose Fold Change (cortex, AD+31/AD, p-value 0.0378): 0.84
- arachidate (20:0) Fold Change (cortex, AD+31/AD, p-value 0.0406): 1.47
- N-delta-acetylornithine Fold Change (cortex, AD+31/AD, p-value 0.0407): 1.32
- 3-sulfo-nervonoyl-galactosylceramide (d18:1/24:1) Fold Change (cortex, AD+31/AD, p-value 0.0443): 1.08
- 1-oleoylglycerol (18:1) Fold Change (cortex, AD+31/AD, p-value 0.0513): 1.46
- 1-stearoyl-GPG (18:0) Fold Change (cortex, AD+31/AD, p-value 0.055): 1.87
- N-acetylglutamate Fold Change (cortex, AD+31/AD, p-value 0.0559): 0.92
- linoleoyl ethanolamide Fold Change (cortex, AD+31/AD, p-value 0.0645): 1.62
- N-acetylglucosaminylasparagine Fold Change (cortex, AD+31/AD, p-value 0.0691): 0.92
- tricosenoate (23:1) Fold Change (cortex, AD+31/AD, p-value 0.0711): 1.54
- 2'-deoxycytidine Fold Change (cortex, AD+31/AD, p-value 0.088): 0.85
- nonadecanoate (19:0) Fold Change (cortex, AD+31/AD, p-value 0.0981): 1.35
- palmitate (16:0) Fold Change (cortex, AD+31/AD, p-value 0.1021): 1.36
- erucate (22:1n9) Fold Change (cortex, AD+31/AD, p-value 0.1047): 1.44
- 5-methylthioadenosine (MTA) Fold Change (cortex, AD+31/AD, p-value 0.1124): 1.12
- stearate (18:0) Fold Change (cortex, AD+31/AD, p-value 0.1164): 1.35
- eicosenoate (20:1) Fold Change (cortex, AD+31/AD, p-value 0.1281): 1.43
- oleate/vaccenate (18:1) Fold Change (cortex, AD+31/AD, p-value 0.1397): 1.39
- adrenate (22:4n6) Fold Change (cortex, AD+31/AD, p-value 0.1408): 1.56
- 1-oleoyl-2-linoleoyl-GPC (18:1/18:2)* Fold Change (cortex, AD+31/AD, p-value 0.1443): 1.12
- glutamate, gamma-methyl ester Fold Change (cortex, AD+31/AD, p-value 0.157): 0.73
- docosadienoate (22:2n6) Fold Change (cortex, AD+31/AD, p-value 0.1608): 1.38
- beta-citrylglutamate Fold Change (cortex, AD+31/AD, p-value 0.1678): 1.19
- methylphosphate Fold Change (cortex, AD+31/AD, p-value 0.1679): 1.13
- pyroglutamine* Fold Change (cortex, AD+31/AD, p-value 0.1791): 1.11
- glycerophosphoglycerol Fold Change (cortex, AD+31/AD, p-value 0.1865): 0.93
- dihomo-linoleate (20:2n6) Fold Change (cortex, AD+31/AD, p-value 0.1892): 1.35
- docosatrienoate (22:3n3) Fold Change (cortex, AD+31/AD, p-value 0.1893): 1.69
- arabinose Fold Change (cortex, AD+31/AD, p-value 0.2015): 0.93
- UDP-glucose Fold Change (cortex, AD+31/AD, p-value 0.209): 1.28
- UDP-N-acetylglucosamine/galactosamine Fold Change (cortex, AD+31/AD, p-value 0.2104): 0.95
- 1-palmitoyl-2-gamma-linolenoyl-GPC (16:0/18:3n6)* Fold Change (cortex, AD+31/AD, p-value 0.213): 0.91
- 1-arachidonylglycerol (20:4) Fold Change (cortex, AD+31/AD, p-value 0.2257): 1.2
- hippurate Fold Change (cortex, AD+31/AD, p-value 0.2339): 1.5
- mead acid (20:3n9) Fold Change (cortex, AD+31/AD, p-value 0.2367): 1.39
- 2-hydroxydecanoate Fold Change (cortex, AD+31/AD, p-value 0.2531): 0.84
- glycerol 3-phosphate Fold Change (cortex, AD+31/AD, p-value 0.2532): 0.91
- 10-nonadecenoate (19:1n9) Fold Change (cortex, AD+31/AD, p-value 0.2636): 1.26
- methionine Fold Change (cortex, AD+31/AD, p-value 0.2665): 1.1
- 1-docosahexaenoylglycerol (22:6) Fold Change (cortex, AD+31/AD, p-value 0.2822): 1.21
- 3-hydroxy-3-methylglutarate Fold Change (cortex, AD+31/AD, p-value 0.2908): 0.95
- anserine Fold Change (cortex, AD+31/AD, p-value 0.2924): 1.14
- N-formylmethionine Fold Change (cortex, AD+31/AD, p-value 0.3078): 0.94
- 3-hydroxybutyrylcarnitine (2) Fold Change (cortex, AD+31/AD, p-value 0.3124): 1.37
- acetylphosphate Fold Change (cortex, AD+31/AD, p-value 0.3359): 0.91
- 1-methylimidazoleacetate Fold Change (cortex, AD+31/AD, p-value 0.3448): 0.9
- N-acetylmethionine Fold Change (cortex, AD+31/AD, p-value 0.3576): 0.96
- arachidonoyl ethanolamide Fold Change (cortex, AD+31/AD, p-value 0.3632): 1.06
- deoxycarnitine Fold Change (cortex, AD+31/AD, p-value 0.3877): 0.94
- palmitoylcholine Fold Change (cortex, AD+31/AD, p-value 0.42): 1.09
- putrescine Fold Change (cortex, AD+31/AD, p-value 0.4207): 1.08
- adenosine 5'-diphosphoribose (ADP-ribose) Fold Change (cortex, AD+31/AD, p-value 0.4258): 0.94
- margarate (17:0) Fold Change (cortex, AD+31/AD, p-value 0.4323): 1.24
- phenol sulfate Fold Change (cortex, AD+31/AD, p-value 0.4423): 1.28
- acetylcarnitine Fold Change (cortex, AD+31/AD, p-value 0.4578): 1.25
- lactate Fold Change (cortex, AD+31/AD, p-value 0.4961): 1.08
- acetyl CoA Fold Change (cortex, AD+31/AD, p-value 0.4998): 1.33
- 3-hydroxybutyrate (BHBA) Fold Change (cortex, AD+31/AD, p-value 0.5074): 1.29
- 2-hydroxystearate Fold Change (cortex, AD+31/AD, p-value 0.5156): 1.2
- gamma-glutamylhistidine Fold Change (cortex, AD+31/AD, p-value 0.5232): 0.9
- gulonate* Fold Change (cortex, AD+31/AD, p-value 0.5547): 0.96
- 1-oleoyl-2-arachidonoyl-GPI (18:1/20:4) * Fold Change (cortex, AD+31/AD, p-value 0.5635): 1.02
- 6-phosphogluconate Fold Change (cortex, AD+31/AD, p-value 0.6142): 0.86
- adenosine 2'-monophosphate (2'-AMP) Fold Change (cortex, AD+31/AD, p-value 0.6144): 1.09
- glucosamine-6-phosphate Fold Change (cortex, AD+31/AD, p-value 0.6542): 1.06
- 1-palmitoyl-2-palmitoleoyl-GPC (16:0/16:1)* Fold Change (cortex, AD+31/AD, p-value 0.6549): 0.98
- 1-(1-enyl-stearoyl)-2-arachidonoyl-GPE (P-18:0/20:4)* Fold Change (cortex, AD+31/AD, p-value 0.6588): 1.01
- mannose Fold Change (cortex, AD+31/AD, p-value 0.6613): 0.9
- UDP-galactose Fold Change (cortex, AD+31/AD, p-value 0.6737): 1.03
- phosphoethanolamine Fold Change (cortex, AD+31/AD, p-value 0.6749): 0.98
- sphingomyelin (d18:1/18:1, d18:2/18:0) Fold Change (cortex, AD+31/AD, p-value 0.6798): 1.03
- sedoheptulose-7-phosphate Fold Change (cortex, AD+31/AD, p-value 0.7025): 0.98
- 1-stearoyl-GPC (18:0) Fold Change (cortex, AD+31/AD, p-value 0.7211): 0.94
- 1-palmitoyl-2-oleoyl-GPS (16:0/18:1) Fold Change (cortex, AD+31/AD, p-value 0.7273): 1.01
- glucose 6-phosphate Fold Change (cortex, AD+31/AD, p-value 0.7454): 0.99
- prolylglycine Fold Change (cortex, AD+31/AD, p-value 0.7821): 0.99
- glycerophosphoethanolamine Fold Change (cortex, AD+31/AD, p-value 0.7927): 1.02
- succinylcarnitine Fold Change (cortex, AD+31/AD, p-value 0.8024): 0.95
- glutamate Fold Change (cortex, AD+31/AD, p-value 0.8146): 0.99
- N-acetyl-glucosamine 1-phosphate Fold Change (cortex, AD+31/AD, p-value 0.868): 0.98
- O-methyltyrosine Fold Change (cortex, AD+31/AD, p-value 0.8778): 0.98
- galactose 1-phosphate Fold Change (cortex, AD+31/AD, p-value 0.8947): 1.05
- 17-methylstearate Fold Change (cortex, AD+31/AD, p-value 0.9061): 1
- 1-stearoyl-2-oleoyl-GPI (18:0/18:1)* Fold Change (cortex, AD+31/AD, p-value 0.9089): 1
- lysine Fold Change (cortex, AD+31/AD, p-value 0.9193): 1
- fructose-6-phosphate Fold Change (cortex, AD+31/AD, p-value 0.9322): 1.01
- coenzyme A Fold Change (cortex, AD+31/AD, p-value 0.937): 1.03
- oleoyl-oleoyl-glycerol (18:1/18:1) [2]* Fold Change (cortex, AD+31/AD, p-value 0.9411): 1
